Results published in US20240238299A1, “USE OF PYRROLOPYRIMIDINE COMPOUND” (GUANGZHOU JOYO PHARMATECH CO., LTD, priority 2021, published 2024).

Legend:
[1] = tested on: IL-6 secretion by astrocytes; assay: IL-6 release caused by NMO-IgG in astrocytes (ELISA); type: cell-based, rat; conditions: 24 h, NMO-IgG 250 μg/mL; for IL-6 inhibition rate, Mean: 5 μM
Experimental: The compound was dissolved in DMSO to prepare a compound stock solution. The compound stock solution was then serially diluted in a gradient using DMSO to prepare a series of 1000× test compound solutions. These 1000× test compound solutions were further diluted at a ratio of 1:100 with cell culture medium to prepare a series of 10× test compound solutions. Finally, according to the experimental well plate loading design, a corresponding volume of 10× solution was added to each well, with two duplicate wells for each drug concentration. In the experiment, the test solution (i.e., 1× solution) had varying final concentrations of compound I, specifically 20, 2.222, 0.247, and 0.027 μM; the concentration of Meprednisone compound (i.e., 1× solution) was 30 μM; the concentration of BAY 11-7082 (i.e., 1× solution) was 5 μM; the final DMSO concentration in each well was 0.1%. DMSO without compound was added to blank control wells, with a final concentration of 0.1%.
1) Extraction and separation of primary astrocytes: A mixed glial cell culture medium was prepared from the cerebral cortex of 1-day-old newborn rats. After euthanizing the newborn rats, they were immersed in alcohol. Their skin was cut, the brains were removed, and the cerebral cortex was isolated. The tissues were then ground to remove the connective tissue, and the mixed glial cells were sieved through a 70 µm cell strainer. These cells were then seeded into a cell culture plate coated with poly-L-lysine. The culture medium was DMEM, containing 10% heat-inactivated fetal bovine serum, 100 U/mL penicillin, and […]. After about 12 days of in vitro culture, the cells reached confluence. Microglia, endothelial cells, and oligodendrocytes were removed from the mixed glial cells by vibratory shaking. […] 2) Culture of astrocytes: The isolated astrocytes were cultured in a 37° C., 5% CO2 incubator. The culture medium was changed every 3 to 4 days. The astrocytes could also be digested using trypsin (0.25%) and then frozen in liquid nitrogen for future use.
Human NMO-IgG was isolated from a sterile-filtered serum pool (AQP4-IgG-positive NMOSD) using a HiTrap Protein G-HP column (GE Healthcare). The serum samples were diluted at a ratio of 1:1 with binding buffer, and after packing the purification column with binding buffer, the serum sample was added. The column was subsequently washed with binding buffer again and the antibodies were eluted according to the instructions. Finally, the antibodies were concentrated on an Amicon Ultra-4 centrifugal filter (millipore) with a 10,000 MW cutoff. The concentrated immunoglobulin was filtered through a 0.22 µm filter. The protein concentration of the concentrate was determined using the BCA method and stored at −80° C. The total IgG extracted from the serum of NMOSD patients was NMO-IgG (containing AQP4-IgG), and the cells were stimulated at a protein concentration of 250 μg/mL during the experiment.
Astrocytes were cultured or revived until day 2 and then seeded into a 24-well plate at a density of 1.5×10^5 cells per well. The test compounds, including compound I, Meprednisone, and BAY11-7082, were pre-incubated with the cells for 30 minutes at the concentrations previously described. Subsequently, in each group, the cells continued to be stimulated with NMO-IgG at a final working concentration of 250 μg/mL for 24 hours to induce astrocyte damage. Normal human Control-IgG (CON-IgG) stimulation at a final working concentration of 250 μg/mL was used as a negative control.
After 24 hours of NMO-IgG stimulation of cells, the supernatant was collected. IL-6 levels were detected using an enzyme-linked immunosorbent assay (ELISA) following the instructions of the IL-6 ELISA kit (R&D Systems, USA, #RD6000B). The absorbance (OD values) of the samples in each group was measured, and the concentration of IL-6 in each experimental group was calculated through standard curve fitting. […]

rat primary astrocytes = assay: Cell viability (CCK-8) in NMO-IgG induced astrocyte injury model; type: cell-based; conditions: NMO-IgG 250 μg/mL, 24 h
[2] = tested on: MOG35-55-induced experimental autoimmune encephalomyelitis (EAE) mouse model; assay: MOG35-55-induced EAE mouse model, clinical scoring and incidence; type: in vivo, C57BL/6 mice; conditions: for reduction rate in AUC for clinical scoring: 14 days, vs vehicle control

SMILES: C[C@H]1C[C@H]2[C@@H]3CCC4=CC(=O)C=C[C@]4(C)[C@H]3C(=O)C[C@]2(C)[C@@]1(O)C(=O)CO [Meprednisone, reference compound]
- inhibition at 30 µM ([1]; Rattus norvegicus, Astrocyte, 30 μM, read-out: IL-6 inhibition rate, Mean): ~74.8%
- viability at 30 µM (rat primary astrocytes; Rattus norvegicus, Astrocyte, 30 μM, read-out: Cell viability percentage, Mean): 81.7%

SMILES: CCCCCCCCc1ccc(CCC(N)(CO)CO)cc1 [Fingolimod, reference compound]
- reduction rate in AUC for clinical scoring ([2]; 0.5 mg/kg QD oral): 49%
- EAE clinical scoring, Mean ([2]; G4, 0.5 mg/kg QD oral, day 0): 0.00
- incidence of EAE ([2]; G4, 0.5 mg/kg QD oral, day 0): 0%
- EAE clinical scoring, Mean ([2]; G4, 0.5 mg/kg QD oral, day 2): 0.00
- incidence of EAE ([2]; G4, 0.5 mg/kg QD oral, day 2): 0%
- EAE clinical scoring, Mean ([2]; G4, 0.5 mg/kg QD oral, day 4): 0.00
- incidence of EAE ([2]; G4, 0.5 mg/kg QD oral, day 4): 0%
- EAE clinical scoring, Mean ([2]; G4, 0.5 mg/kg QD oral, day 7): 0.00
- incidence of EAE ([2]; G4, 0.5 mg/kg QD oral, day 7): 0%
- EAE clinical scoring, Mean ([2]; G4, 0.5 mg/kg QD oral, day 9): 0.00
- incidence of EAE ([2]; G4, 0.5 mg/kg QD oral, day 9): 0%
- EAE clinical scoring, Mean ([2]; G4, 0.5 mg/kg QD oral, day 11): 0.00
- incidence of EAE ([2]; G4, 0.5 mg/kg QD oral, day 11): 0%
- EAE clinical scoring, Mean ([2]; G4, 0.5 mg/kg QD oral, day 12): 0.00
- incidence of EAE ([2]; G4, 0.5 mg/kg QD oral, day 12): 0%
- EAE clinical scoring, Mean ([2]; G4, 0.5 mg/kg QD oral, day 13): 0.20
- incidence of EAE ([2]; G4, 0.5 mg/kg QD oral, day 13): 20%
- EAE clinical scoring, Mean ([2]; G4, 0.5 mg/kg QD oral, day 14): 0.70
- incidence of EAE ([2]; G4, 0.5 mg/kg QD oral, day 14): 60%
- EAE clinical scoring, Mean ([2]; G4, 0.5 mg/kg QD oral, day 15): 1.30
- incidence of EAE ([2]; G4, 0.5 mg/kg QD oral, day 15): 80%
- EAE clinical scoring, Mean ([2]; G4, 0.5 mg/kg QD oral, day 16): 1.70
- incidence of EAE ([2]; G4, 0.5 mg/kg QD oral, day 16): 80%
- EAE clinical scoring, Mean ([2]; G4, 0.5 mg/kg QD oral, day 17): 1.70
- incidence of EAE ([2]; G4, 0.5 mg/kg QD oral, day 17): 80%
- EAE clinical scoring, Mean ([2]; G4, 0.5 mg/kg QD oral, day 18): 1.40
- incidence of EAE ([2]; G4, 0.5 mg/kg QD oral, day 18): 70%
- EAE clinical scoring, Mean ([2]; G4, 0.5 mg/kg QD oral, day 19): 1.30
- incidence of EAE ([2]; G4, 0.5 mg/kg QD oral, day 19): 70%
- EAE clinical scoring, Mean ([2]; G4, 0.5 mg/kg QD oral, day 20): 1.00
- incidence of EAE ([2]; G4, 0.5 mg/kg QD oral, day 20): 60%
- EAE clinical scoring, Mean ([2]; G4, 0.5 mg/kg QD oral, day 21): 0.90
- incidence of EAE ([2]; G4, 0.5 mg/kg QD oral, day 21): 50%
- EAE clinical scoring, Mean ([2]; G4, 0.5 mg/kg QD oral, day 22): 0.80
- incidence of EAE ([2]; G4, 0.5 mg/kg QD oral, day 22): 50%
- EAE clinical scoring, Mean ([2]; G4, 0.5 mg/kg QD oral, day 23): 0.70
- incidence of EAE ([2]; G4, 0.5 mg/kg QD oral, day 23): 40%
- EAE clinical scoring, Mean ([2]; G4, 0.5 mg/kg QD oral, day 24): 0.50
- incidence of EAE ([2]; G4, 0.5 mg/kg QD oral, day 24): 20%
- EAE clinical scoring, Mean ([2]; G4, 0.5 mg/kg QD oral, day 25): 0.50
- incidence of EAE ([2]; G4, 0.5 mg/kg QD oral, day 25): 20%
- EAE clinical scoring, Mean ([2]; G4, 0.5 mg/kg QD oral, day 26): 0.50
- incidence of EAE ([2]; G4, 0.5 mg/kg QD oral, day 26): 20%
- EAE clinical scoring, Mean ([2]; G4, 0.5 mg/kg QD oral, day 27): 0.50
- incidence of EAE ([2]; G4, 0.5 mg/kg QD oral, day 27): 20%

SMILES: C[C@@H]1C[C@H]2[C@@H]3CCC4=CC(=O)C=C[C@]4(C)[C@@]3(F)[C@@H](O)C[C@]2(C)[C@@]1(O)C(=O)CO [Dexamethasone, reference compound]
- reduction rate in AUC for clinical scoring ([2]; 1 mg/kg QD oral): 65%
- incidence of EAE ([2]; G3, 1 mg/kg PO QD, day 0): 0%
- incidence of EAE ([2]; G3, 1 mg/kg PO QD, day 2): 0%
- incidence of EAE ([2]; G3, 1 mg/kg PO QD, day 4): 0%
- incidence of EAE ([2]; G3, 1 mg/kg PO QD, day 7): 0%
- incidence of EAE ([2]; G3, 1 mg/kg PO QD, day 9): 0%
- incidence of EAE ([2]; G3, 1 mg/kg PO QD, day 11): 0%
- incidence of EAE ([2]; G3, 1 mg/kg PO QD, day 12): 10%
- incidence of EAE ([2]; G3, 1 mg/kg PO QD, day 13): 20%
- incidence of EAE ([2]; G3, 1 mg/kg PO QD, day 14): 60%
- incidence of EAE ([2]; G3, 1 mg/kg PO QD, day 15): 60%
- incidence of EAE ([2]; G3, 1 mg/kg PO QD, day 16): 60%
- incidence of EAE ([2]; G3, 1 mg/kg PO QD, day 17): 50%
- incidence of EAE ([2]; G3, 1 mg/kg PO QD, day 18): 50%
- incidence of EAE ([2]; G3, 1 mg/kg PO QD, day 19): 50%
- incidence of EAE ([2]; G3, 1 mg/kg PO QD, day 20): 50%
- incidence of EAE ([2]; G3, 1 mg/kg PO QD, day 21): 50%
- incidence of EAE ([2]; G3, 1 mg/kg PO QD, day 22): 40%
- incidence of EAE ([2]; G3, 1 mg/kg PO QD, day 23): 30%
- incidence of EAE ([2]; G3, 1 mg/kg PO QD, day 24): 30%
- incidence of EAE ([2]; G3, 1 mg/kg PO QD, day 25): 30%
- incidence of EAE ([2]; G3, 1 mg/kg PO QD, day 26): 30%
- incidence of EAE ([2]; G3, 1 mg/kg PO QD, day 27): 30%
- EAE clinical scoring, Mean ([2]; G3, 1 mg/kg QD oral, day 0): 0.00
- EAE clinical scoring, Mean ([2]; G3, 1 mg/kg QD oral, day 2): 0.00
- EAE clinical scoring, Mean ([2]; G3, 1 mg/kg QD oral, day 4): 0.00
- EAE clinical scoring, Mean ([2]; G3, 1 mg/kg QD oral, day 7): 0.00
- EAE clinical scoring, Mean ([2]; G3, 1 mg/kg QD oral, day 9): 0.00
- EAE clinical scoring, Mean ([2]; G3, 1 mg/kg QD oral, day 11): 0.00
- EAE clinical scoring, Mean ([2]; G3, 1 mg/kg QD oral, day 12): 0.10
- EAE clinical scoring, Mean ([2]; G3, 1 mg/kg QD oral, day 13): 0.20
- EAE clinical scoring, Mean ([2]; G3, 1 mg/kg QD oral, day 14): 0.70
- EAE clinical scoring, Mean ([2]; G3, 1 mg/kg QD oral, day 15): 1.30
- EAE clinical scoring, Mean ([2]; G3, 1 mg/kg QD oral, day 16): 1.70
- EAE clinical scoring, Mean ([2]; G3, 1 mg/kg QD oral, day 17): 1.70
- EAE clinical scoring, Mean ([2]; G3, 1 mg/kg QD oral, day 18): 1.40
- EAE clinical scoring, Mean ([2]; G3, 1 mg/kg QD oral, day 19): 1.30
- EAE clinical scoring, Mean ([2]; G3, 1 mg/kg QD oral, day 20): 1.00
- EAE clinical scoring, Mean ([2]; G3, 1 mg/kg QD oral, day 21): 0.90
- EAE clinical scoring, Mean ([2]; G3, 1 mg/kg QD oral, day 22): 0.80
- EAE clinical scoring, Mean ([2]; G3, 1 mg/kg QD oral, day 23): 0.70
- EAE clinical scoring, Mean ([2]; G3, 1 mg/kg QD oral, day 24): 0.30
- EAE clinical scoring, Mean ([2]; G3, 1 mg/kg QD oral, day 25): 0.30
- EAE clinical scoring, Mean ([2]; G3, 1 mg/kg QD oral, day 26): 0.30
- EAE clinical scoring, Mean ([2]; G3, 1 mg/kg QD oral, day 27): 0.30

SMILES: Cc1ccc(S(=O)(=O)/C=C/C#N)cc1 [BAY 11-7082, BAY11-7082, reference compound]
- IL-6 inhibition rate, Mean [1]: 104.2%
- IL-6 inhibition rate, Mean ([1]; listed as BAY compound): approximately 104.2%
- Cell viability percentage, Mean (rat primary astrocytes; 5 μM): 39.5%
